One molecule from patent publication US20050059731A1, “Erythrosin-based antimicrobial photodynamic therapy compound and its use” (CeramOptec Industries, Inc., priority 2003, published 2005) can be followed below.

For this test, the system named is Streptococcus mutans DSM6178 (ATCC 35668). The experiment in a line: Photodynamic inactivation of bacterial cell suspensions of Streptococcus mutans by Erythrosin B gel. Type of test: cell-based. The conditions noted are these: in saliva; general statement. The procedure: Photodynamic Inactivation of Bacterial Cell Suspensions of Streptococcus mutans by Erythrosin B: The organism used in this study was Streptococcus mutans DSM6178 (ATCC 35668). Gram-positive Streptococcus spec. are jointly responsible for the development of oral caries. Streptococcus mutans cells were grown aerobically overnight at 37° C. in Tryptic Soy Broth (Merck KGaA Darmstadt, Germany). Cells were harvested by centrifugation and resuspended in sterile phosphate-buffered saline (PBS) supplemented with 10% sterile filtered natural saliva. The final OD (Optical Density) at 600 nm, for a 1 cm path length, in all cases was 0.05. About 0.5 ml of an Erythrosin B gel of hydroxyethyl cellulose (1 mM, 2 mM, 3 mM and 8 mM Erythrosin B) were placed at the bottom of a tube. The gel was layered with 0.5 ml of the bacterial suspension and exposed for 1, 3 or 5 minutes, respectively under slight shaking at room temperature. After exposure 250 μl of the suspension was placed in a new tube, the tube was centrifuged, the supernatant was removed and the cell pellet was resuspended in 250 μl of PBS+10% natural saliva (sterile filtered). […] The fluence rate for these settings was about 0.1 W/cm^2 (measured with Optometer P-9710, Gigahertz-Optik GmbH, Puchheim, Germany). […]

Molecules are shown by their SMILES.

Take `O.O=C([O-])c1ccccc1-c1c2cc(I)c(=O)c(I)c-2oc2c(I)c([O-])c(I)cc12.[Na+].[Na+]` [Erythrosin B]: the “photosensitizing effectiveness against Gram-positive bacteria” value is reported as “effective photosensitizing substance against Gram-positive bacteria in saliva”.
